One assay concerns the target T1, Sphingosine-1-phosphate transporter SPNS2 (Homo sapiens) (UniProt Q8IVW8).
T1 sequence (whole entry): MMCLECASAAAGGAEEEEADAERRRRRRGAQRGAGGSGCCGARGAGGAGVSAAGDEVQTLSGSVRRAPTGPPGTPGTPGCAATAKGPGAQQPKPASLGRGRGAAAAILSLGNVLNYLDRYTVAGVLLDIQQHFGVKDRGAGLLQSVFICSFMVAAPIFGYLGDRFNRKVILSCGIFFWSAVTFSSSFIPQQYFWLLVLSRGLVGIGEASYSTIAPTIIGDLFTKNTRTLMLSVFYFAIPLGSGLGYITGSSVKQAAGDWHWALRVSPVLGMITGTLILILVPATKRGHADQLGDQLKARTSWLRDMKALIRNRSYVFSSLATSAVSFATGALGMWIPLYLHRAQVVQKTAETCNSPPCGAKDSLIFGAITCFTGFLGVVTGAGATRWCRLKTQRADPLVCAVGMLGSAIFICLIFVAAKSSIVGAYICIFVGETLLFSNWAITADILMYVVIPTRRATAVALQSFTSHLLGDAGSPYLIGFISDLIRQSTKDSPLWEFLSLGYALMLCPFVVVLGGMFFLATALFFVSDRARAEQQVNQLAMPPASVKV
The experiment in a line: Inhibition of Spns2 in human HeLa cells assessed as decrease in extracellular S1P level at 2 uM by LC/MS analysis relative to control. The assay is classed as cell-based.
As for `CCCCCCCCCCc1ccc(-c2cn(CC(=O)OC(C)C)c(CCCN)n2)cc1`, the inhibition came to 27%.

Take `CCCCCCCCCCc1ccc(-c2cn(CCCOC)c(CCCN)n2)cc1`: the inhibition was determined as 11%.

For `CCCCCCCCCCc1ccc(-c2cn(CC(N)=O)c(CCCN)n2)cc1`, the inhibition came out at 10%.

On to `CCCCCCCCCCc1ccc(-c2noc(CCCN)n2)cc1`, for which the inhibition is 67%.

For the molecule `CCCCCCCCCCc1ccc(-c2cn(CCC)c(CCCN)n2)cc1`, the inhibition came out at 7%.

On to `CCCCCCCCCCc1ccc(-c2cn(CC)c(CCCN)n2)cc1`, for which the inhibition came out at 51%.

Take `CCCCCCCCCCc1ccc(-c2cn(C)c(CCCN)n2)cc1`: the inhibition is 51%.

For the next assay, the target named is T1, Sphingosine-1-phosphate transporter SPNS2 (Homo sapiens). Put plainly: Inhibition of Spns2 in human HeLa cells assessed as decrease in extracellular S1P level at 3 uM by LC/MS analysis relative to control. The class given is cell-based.
As to `CCCCCCCCc1nc(-c2ccc(-n3ccnc3)cc2)no1`, the inhibition was 22%.

For the molecule `CCCCCCCCCc1nc(-c2ccc(-n3ccnc3)cc2)no1`, the inhibition is 28%.

In the case of `CCCCCCCCc1nc(-c2ccc(-n3cc[n+](C)c3)cc2)no1`, the inhibition amounted to 26%.

Consider `CCCCCCCc1nc(-c2ccc(-n3cc[n+](C)c3)cc2)no1`, for which the inhibition stood at 0%.

With `CCCCCCCCCCc1nc(-c2ccc(-n3cc[n+](C)c3)cc2)no1`, the inhibition is 41%.

As to `CCCCCCCCCCCc1nc(-c2ccc(-n3cc[n+](C)c3)cc2)no1`, the inhibition was found to be 3%.

Turning to `CCCCCCCCCCc1nc(-c2ccc(-n3ccnc3)cc2)no1`, the inhibition is 33%.

Consider `CCCCCCCc1nc(-c2ccc(-n3ccnc3)cc2)no1`, for which the inhibition is 12%.

As for `CCCCCCCCCCCc1nc(-c2ccc(-n3ccnc3)cc2)no1`, the inhibition is 25%.

Regarding `CCCCCCCCCc1nc(-c2ccc(-n3cc[n+](C)c3)cc2)no1`, the inhibition came out at 47%.

The target of the next assay is T2, Sphingosine-1-phosphate transporter SPNS2 (Homo sapiens, UniProt Q8IVW8).
T2 sequence (Q8IVW8 whole entry): T1 sequence (whole entry)
The experiment in a line: Inhibition of Spns2 in human HeLa cells decrease in extracellular S1P level by LC/MS method. The assay is classed as cell-based.
Regarding `CCCCCCCCCCc1ccc(-c2cn(CC)c(CCCN)n2)cc1`, it took 1.4 µM to reach half-maximal inhibition (IC50).

`CCCCCCCCCCc1ccc(-c2cn(C)c(CCCN)n2)cc1` showed an IC50 of 2.82 µM.

As usually defined, the inhibition is the relative decrease from the control value, in per cent. What is called IC50 is the point on the concentration scale where inhibition reaches its midpoint. A low value points to greater potency.

Values taken from ChEMBL document CHEMBL5390230, “Imidazole-based sphingosine-1-phosphate transporter Spns2 inhibitors” (Bioorg Med Chem Lett, 2023).
